Test results: patent publication US9610294B2, “Methods and compositions for the treatment of fluid accumulation in and/or under the retina” (UNIVERSITE PARIS DESCARTES, priority 2010, dated 2017)
Where two headings read alike, the source gives them in different places.

Experiments:
ENaC-α = ENaC-α expression (real-time PCR, western blot) in rat RMG primary cultures and retinal explants; format: cell-based; conditions: for aldosterone-induced increase in ENaC-α subunit transcripts in presence of antagonist: 10 nM aldosterone plus 1 µM antagonist, 24 hrs
Description: (§1) Rat RMG cells were obtained as described (deKozak, Y., Naud, M. C., Bellot, J., Faure, J. P., and Hicks, D. (1994) Differential tumor necrosis factor expression by resident retinal cells from experimental uveitis-susceptible and -resistant rat strains. J Neuroimmunol 55, 1-9). Briefly, rats at postnatal (PN) day 17 (when RMG cells are mature) were sacrificed and eyes enucleated. Intact eyeballs were maintained in DMEM overnight at room temperature in the dark, and then incubated 45 min with 2 mg/ml trypsin/collagenase I at 37° C. The neural retinas were separated from the lens and vitreous, cut into small fragments and plated in Petri dishes containing DMEM supplemented with 10% FCS, 100 units/ml penicillin, 100 µg/ml streptomycin, and 0.2% amphotericin B. Cultures were maintained at 37° C. in a humidified atmosphere containing 5% CO2. After 5 to 6 days, the cultures were washed extensively with medium so that only a strongly adherent flat cell population remained.
(§2) Müller cells were seeded in 6-well tissue culture plates (Becton Dickinson, Le Pont de Claix, France). Rat PN17 RMG cells were maintained in their initial Petri dishes. Sub confluent (80%) cells were incubated in media supplemented with 10% steroid-free (charcoal treated) FCS for 24 hrs. Corticosteroid (Sigma-Aldrich, Saint Quentin Fallavier, France) treatments were then applied respectively for a further 24 hrs: 10 nM aldosterone, 10 nM aldosterone plus 1).IM RU38486 (GR-specific antagonist), 10 nM aldosterone plus 1 µM RU26752 (MR-specific antagonist) or 1 µM dexamethasone. The steroids were previously dissolved in 2% steroid-free FCS media containing 0.1% ethanol. Control cells were treated with 0.1% ethanol in media.
(§3) After enucleation, rat retinas were isolated immediately under aseptic conditions and cut into 4 pieces. They were then transferred onto a Cyclopore 0.2).Im polycarbonate membrane (Whatman, Maidstone, England), and flatmounted with the vitreal side up. The support membranes were placed in 6-well tissue culture plates containing 2 ml DMEM supplemented with 10% steroid-free FCS, 1% penicillin-streptomycin and 0.1% amphotericin B. Explants were treated with corticosteroids as described for cultured cells. Similarly, the dose-dependent effect of aldosterone (0.1-100 nM) was analyzed on retinal explants in separate experiments.
(§4) Total RNA was isolated from the treated RMG cells and retinal explants using RNeasy Mini Kit (Qiagen, Courtaboeuf, France). First-strand cDNA was synthesized after DNase I (Qiagen) treatment using random primers (Invitrogen) and superscript II reverse transcriptase (Invitrogen). Transcript levels of ENaC-a, Kir4.1 and AQP4 were analyzed by real-time PCR performed in 7500 Real-Time PCR System (Applied Biosystems, Foster City, Calif., USA) with either TaqMan® (Applied Biosystems) or SYBR® Green (Invitrogen, Cergy Pontoise, France) detection. The 18S was used as internal control.
(§5) Retinal explants were homogenized in Np40 buffer in the presence of protease inhibitors. The protein concentration was determined by the Bradford method. Equal amounts of protein (12 .ug) were separated on Novex® 4%-12% Tris-Glycine gel (Invitrogen), transferred to nitrocellulose, and the blots were incubated with primary antibodies at 4° C. overnight. The membranes were washed, incubated with horse radish peroxidase conjugated goat anti-rabbit IgG (1:3000, Vector, AbCys, Paris, France) for 1 hr at room temperature, and developed using ECL Plus western blotting detection reagents (GE healthcare, Orsay, France). The j3-actin was used as internal control. The following primary antibodies were used: rabbit anti-alpha ENaC (1:500, Abcam, Cambridge, Mass., USA), rabbit anti-Kir4.1 (1:400, Alomone Labs, Jerusalem, Israel), rabbit anti-AQP4 (1:750, Millipore, St Quentin en Yvelines, France) and rabbit anti-j3-actin (1:1000, Abcam)

Kir4.1 = Kir4.1 expression (real-time PCR, western blot) in rat RMG primary cultures and retinal explants; format: cell-based; conditions: for aldosterone-induced Kir4.1 up-regulation in presence of antagonist: 10 nM aldosterone plus 1 µM antagonist, 24 hrs
Description: as §1, §2, §3, §4, §5

AQP4 [1] = experiment: AQP4 expression (real-time PCR, western blot) in rat RMG primary cultures and retinal explants; format: cell-based; conditions: for aldosterone induction of AQP4 mRNA in presence of antagonist: 10 nM aldosterone plus 1 µM antagonist, 24 hrs
Description: as §1, §2, §3, §4, §5

AQP4 [2] = experiment: AQP4 mRNA expression in RMG cells (Example 2); format: cell-based
Source text: We have performed several experiments.

retina [3] = experiment: Intraocular injection in Brown Norway rats (gain of function mutation in the MR gene): CSCR-like retinal pathology; format: in vivo; conditions: FIGS. 1 and 2
[4] = test system: sub retinal and/or intra retinal fluid; experiment: Oral eplerenone in patients with CSCR or chronic diffuse epitheliopathy; format: in vivo, human; conditions: for recurrence: at 6 months
Source text: Patients with non-resolutive or chronic diffuse epitheliopathy presenting with macular fluid accumulation have been treated with oral eplerenone, a specific MR antagonist. […] On the contrary, 4 months later and at 1 week before treatment, the amount of fluid had accumulated. […] They have a long history of recurrent CSCR on both eyes. In their left eye (OS), they present a macular edema with sub retinal fluid and retinal cysts. The left eye vision is reduced to 1/10 and the edema is chronic since more than 2 years. They have been treated with eplerenone 25 mg/day for 8 days and then 50 mg/days for 3 month. […] Moreover, vision in the left eye recovered to 6/10. No recurrence was observed on none of the eyes even at 6 months.

retina [5] = experiment: Intravitreal spironolactone in GK diabetic rats: retinal histology; format: in vivo, Goto-Kakizaki (GK) rats
Description: Goto-Kakizaki (GK) rats have been used as model for diabetic retinopathy. GK rats (Taconic Europe, Denmark), a Wistar non-obese model of Non-Insulin Dependent type 2 Diabetes were used at different ages of hyperglycemia. Glycemia was measured using Accutrend GC and Accu-check compact equipments (Roche) and plasma glucose >250 mg/dl was considered as diabetic state. […] Controls were selected from age-matched non-diabetic rats and with plasma glucose <150 mg/dl. […] 18 months diabetic rats were treated with intravitreous injections (1 μM) at day 1,3,5 and animals were re tested for ERGs 24 hrs after each injection. 24 hrs after the third injection, animals were sacrificed and the retina were analyzed using semi-thin sections.

retina [6] = experiment: Intravitreal spironolactone in GK diabetic rats: electroretinograms (ERG); format: in vivo, Goto-Kakizaki (GK) rats; conditions: 18 months diabetic GK rats, intravitreous 1 μM at day 1,3,5; 24 hrs after last injection, FIG. 7
Description: In 18 months-old GK rats, electroretinogramms were preformed (ERG).
18 months diabetic rats were treated with intravitreous injections (1 μM) at day 1,3,5 and animals were re tested for ERGs 24 hrs after each injection.

[7] = 18 months GK rats, 3 intravitreous injections 1 μM, vs vehicle, FIG. 8
[8] = GK diabetic rats, intraocular, conclusion
[9] = GK rats, 1 μM final in the vitreous, 24 hrs after injection, FIG. 6

CCC[C@@H]1CC2=CC(=O)CC[C@]2(C)[C@H]2CC[C@@]3(C)[C@@H](CC[C@@]34CCC(=O)O4)[C@H]12 [RU26752]
aldosterone-induced increase in ENaC-α subunit transcripts in presence of antagonist (ENaC-α): inhibited
aldosterone-induced ENaC protein in presence of MR antagonist (ENaC-α; western blot, retinal explants): not reduced
aldosterone-induced Kir4.1 up-regulation in presence of antagonist (Kir4.1): weaker (or no) effect
aldosterone-induced Kir4.1 protein in presence of MR antagonist (Kir4.1; western blot): reduced
aldosterone induction of AQP4 mRNA in presence of antagonist (AQP4 [1]): fully suppressed
aldosterone-induced AQP4 protein in presence of MR antagonist (AQP4 [1]; western blot): blocked
aldosterone induction of AQP4 mRNA on co-administration of MR antagonist (AQP4 [2]): completely blocks the induction

CC#C[C@]1(O)CC[C@H]2[C@@H]3CCC4=CC(=O)CCC4=C3[C@@H](c3ccc(N(C)C)cc3)C[C@@]21C [RU38486]
aldosterone-induced increase in ENaC-α subunit transcripts in presence of antagonist (ENaC-α): inhibited
aldosterone-induced Kir4.1 up-regulation in presence of antagonist (Kir4.1): fully efficient to reduce it
aldosterone induction of AQP4 mRNA in presence of antagonist (AQP4 [1]): reduces somehow

C[C@]12C[C@H](O)[C@H]3[C@@H](CCC4=CC(=O)CC[C@@]43C)[C@@H]1CC[C@@H]2C(=O)CO [corticosterone]
retinal pathology after intraocular injection (retina [3]): develop a retinal pathology very close to CSCR

COC(=O)[C@@H]1CC2=CC(=O)CC[C@]2(C)[C@@]23O[C@@H]2C[C@@]2(C)[C@@H](CC[C@@]24CCC(=O)O4)[C@H]13 [eplerenone, Pregn-4-ene-7,21-dicarboxylic acid, 9,11-epoxy-17-hydroxy-3-oxo-,γ-lactone, methyl ester, (7α,11α,17β)]
sub retinal fluid ([4]; FIG. 3 patient, CSCR unresolved for 4 months, 25 mg/day orally for 8 days): striking reduction
recurrence ([4]; FIG. 3 patient, treatment discontinued after 4 weeks): did not show any recurrence
sub retinal fluid ([4]; FIG. 3 patient, then 50 mg/day for 8 days, after 2 weeks of treatment): almost complete resolution
sub retinal fluid ([4]; FIG. 4 patient, chronic CSCR, 25 mg/day for 8 days then 50 mg/day, 15 days after treatment): complete resolution
macular cysts ([4]; FIG. 4 patient, chronic CSCR, 15 days after treatment): total resolution
recurrence ([4]; FIG. 4 patient, both eyes): No recurrence
vision in the left eye ([4]; FIG. 4 patient, reduced to 1/10 before treatment): 6/10
kinetics of efficacy ([4]; patients, oral eplerenone): as early as the first week of use
regression of sub retinal and/or intra retinal fluid ([4]; patients, oral eplerenone, FIGS. 3 and 4): very rapid and efficient regression

CC(=O)S[C@@H]1CC2=CC(=O)CC[C@]2(C)[C@H]2CC[C@@]3(C)[C@@H](CC[C@@]34CCC(=O)O4)[C@H]12 [spironolactone, 17-hydroxy-7α-mercapto-3-oxo-17α-pregn-4-ene-21-carboxylic acid γ-lactone acetate]
edema in inner/outer (IS/OS) segments and outer nuclear layer (ONL) (retina [5]; [7]): decreased
vasodilation in the choriocapillaries (retina [5]; [7]): reduced
formation of outer segments (retina [5]; [8]): improves
retinal edema (retina [5]; [8]): efficiently reduces
fluid accumulation in the outer nuclear layer (photoreceptor layer) (retina [5]; [9]): have decreased
thickness of the outer retina (retina [5]; [9]): decreased
ERG b-wave after treatment compared to before treatment (retina [6]): significantly increased

C[C@]12C=CC(=O)C=C1CC[C@H]1[C@@H]3C[C@@H](O)[C@](O)(C(=O)CO)[C@@]3(C)C[C@H](O)[C@@]12F [triamcinolone]
expression of the water channel AQP4 (AQP4 [2]): reduces the expression of AQP4
expression of the water channel AQP4 (AQP4 [2]; listed as triamcinolone acetonide): same effect as a MR antagonist
